Molecular target: T1, K-Ras G12C (Homo sapiens, UniProt P01116, G12C)
T1 construct: This protein contained 188 amino acids in total, including an N-terminal 6-Histidine tag; made in house; host or cells: E. coli BL21
Assay: CAF assay (% CAF; method in Example 7, not in this part)
Type: binding
Settings: 1 h; for % CAF @ 10 uM, 1h: Table 3

C=CC(=O)N1CCN(c2nc(=O)n3c4c(c(-c5c(F)cc(F)cc5F)c(Cl)cc24)SC[C@@H]3CCCN2C[C@@H]3C[C@H]2CO3)[C@@H](C)C1 [Example 109, (S)-3-(3-((1S,4S)-2-oxa-5-azabicyclo[2.2.1]heptan-5-yl)propyl)-7-((S)-4-acryloyl-2-methylpiperazin-1-yl)-9-chloro-10-(2,4,6-trifluorophenyl)-2,3-dihydro-5H-[1,4]thiazino[2,3,4-ij]quinazolin-5-one]
% CAF @ 10 uM, 1h: 96.9%

C=CC(=O)N1CCN(c2nc(=O)n3c4c(c(-c5c(F)cc(F)cc5F)c(Cl)cc24)SC[C@H]3CCCN2C[C@@H]3C[C@H]2CO3)[C@@H](C)C1 [Example 110, (R)-3-(3-((1S,4S)-2-oxa-5-azabicyclo[2.2.1]heptan-5-yl)propyl)-7-((S)-4-acryloyl-2-methylpiperazin-1-yl)-9-chloro-10-(2,4,6-trifluorophenyl)-2,3-dihydro-5H-[1,4]thiazino[2,3,4-ij]quinazolin-5-one]
% CAF @ 10 uM, 1h: 96.6%

C[C@H]1CN(C(=O)/C=C/C(F)(F)F)CCN1c1nc(=O)n2c3c(c(-c4c(F)cc(F)cc4F)c(Cl)cc13)SCC2 [Example 111, (S,E)-9-chloro-7-(2-methyl-4-(4,4,4-trifluorobut-2-enoyl)piperazin-1-yl)-10-(2,4,6-trifluorophenyl)-2,3-dihydro-5H-[1,4]thiazino[2,3,4-ij]quinazolin-5-one]
% CAF @ 10 uM, 1h: 95.2%

C[C@H]1CN(C(=O)/C=C/C(F)(F)F)CCN1c1nc(=O)n2c3c(c(-c4ccc(F)cc4F)c(Cl)cc13)SCC2 [Example 112, 9-chloro-10-(2,4-difluorophenyl)-7-((S)-2-methyl-4-((E)-4,4,4-trifluorobut-2-enoyl)piperazin-1-yl)-2,3-dihydro-5H-[1,4]thiazino[2,3,4-ij]quinazolin-5-one]
% CAF @ 10 uM, 1h: 86.2%

C=C(F)C(=O)N1CCN(c2nc(=O)n3c4c(c(-c5ccc(F)cc5F)c(Cl)cc24)SCC3)[C@@H](C)C1 [Example 113, 9-chloro-10-(2,4-difluorophenyl)-7-((S)-4-(2-fluoroacryloyl)-2-methylpiperazin-1-yl)-2,3-dihydro-5H-[1,4]thiazino[2,3,4-ij]quinazolin-5-one]
% CAF @ 10 uM, 1h: 21.7%

C=CC(=O)N1CCN(c2nc(=O)n3c4c(c(-c5ccc(F)cc5F)c(CC)cc24)SCC3)[C@@H](C)C1 [Example 114, 7-((S)-4-acryloyl-2-methylpiperazin-1-yl)-10-(2,4-difluorophenyl)-9-ethyl-2,3-dihydro-5H-[1,4]thiazino[2,3,4-ij]quinazolin-5-one]
% CAF @ 10 uM, 1h: 92.8%

C=CC(=O)N1CCN(c2nc(=O)n3c4c(c(-c5ccc(F)cc5F)c(C)cc24)SCC3)[C@@H](C)C1 [Example 115, 7-((S)-4-acryloyl-2-methylpiperazin-1-yl)-10-(2,4-difluorophenyl)-9-methyl-2,3-dihydro-5H-[1,4]thiazino[2,3,4-ij]quinazolin-5-one]
% CAF @ 10 uM, 1h: 94.1%

C=CC(=O)N1CCN(c2nc(=O)n3c4c(c(-c5ccc(F)cc5F)c(Cl)cc24)SCC3)CC12CCNC2=O (centres unmarked) [Example 116, 7-(6-acryloyl-1-oxo-2,6,9-triazaspiro[4.5]decan-9-yl)-9-chloro-10-(2,4-difluorophenyl)-2,3-dihydro-5H-[1,4]thiazino[2,3,4-ij]quinazolin-5-one]
% CAF @ 10 uM, 1h: 27.4%

C=CC(=O)N1CCN(c2nc(=O)n3c4c(c(-c5ccc(F)cc5F)c(Cl)cc24)SCC3)C2CN(S(C)(=O)=O)CC21 (centres unmarked) [Example 118, 7-(4-acryloyl-6-(methylsulfonyl)octahydro-1H-pyrrolo[3,4-b]pyrazin-1-yl)-9-chloro-10-(2,4-difluorophenyl)-2,3-dihydro-5H-[1,4]thiazino[2,3,4-ij]quinazolin-5-one]
% CAF @ 10 uM, 1h: 48.3%

C[C@H]1CN(C(=O)/C=C/C(F)F)CCN1c1nc(=O)n2c3c(c(-c4ccc(F)cc4F)c(Cl)cc13)SCC2 [Example 119, 9-chloro-7-((S)-4-((E)-4,4-difluorobut-2-enoyl)-2-methylpiperazin-1-yl)-10-(2,4-difluorophenyl)-2,3-dihydro-5H-[1,4]thiazino[2,3,4-ij]quinazolin-5-one]
% CAF @ 10 uM, 1h: 97.1%

C[C@H]1CN(C(=O)/C=C/C(F)F)CCN1c1nc(=O)n2c3c(c(-c4c(F)cc(F)cc4F)c(Cl)cc13)SCC2 [Example 120, (S,E)-9-chloro-7-(4-(4,4-difluorobut-2-enoyl)-2-methylpiperazin-1-yl)-10-(2,4,6-trifluorophenyl)-2,3-dihydro-5H-[1,4]thiazino[2,3,4-ij]quinazolin-5-one]
% CAF @ 10 uM, 1h: 95.9%

CN(C)C/C=C/C(=O)N1CCN(c2nc(=O)n3c4c(c(-c5ccc(F)cc5F)c(Cl)cc24)SCC3)C[C@H]1C#N [Example 121, (2S)-4-(9-chloro-10-(2,4-difluorophenyl)-5-oxo-2,3-dihydro-5H-[1,4]thiazino[2,3,4-ij]quinazolin-7-yl)-1-((E)-4-(dimethylamino)but-2-enoyl)piperazine-2-carbonitrile]
% CAF @ 10 uM, 1h: 3.6%

C=CC(=O)N1CCN(c2nc(=O)n3c4c(c(-c5ccc(F)cc5F)c(Cl)cc24)SCC3CN2CCN(CC)CC2)[C@@H](C)C1 (stereo partly drawn) [Example 122, 7-((S)-4-acryloyl-2-methylpiperazin-1-yl)-9-chloro-10-(2,4-difluorophenyl)-3-((4-ethylpiperazin-1-yl)methyl)-2,3-dihydro-5H-[1,4]thiazino[2,3,4-ij]quinazolin-5-one]
% CAF @ 10 uM, 1h: 80.9%

C=C(F)C(=O)N1CCN(c2nc(=O)n3c4c(c(-c5ccc(F)cc5F)c(Cl)cc24)SCC3)C[C@H]1C#N [Example 125, (2S)-4-(9-chloro-10-(2,4-difluorophenyl)-5-oxo-2,3-dihydro-5H-[1,4]thiazino[2,3,4-ij]quinazolin-7-yl)-1-(2-fluoroacryloyl) piperazine-2-carbonitrile]
% CAF @ 10 uM, 1h: 94.5%

C=CC(=O)N1CCN(c2nc(=O)n3c4c(c(-c5ccc(F)cc5F)c(Cl)cc24)SCC3CN2CCN(C)CC2)[C@@H](C)C1 (stereo partly drawn) [Example 126, 7-((S)-4-acryloyl-2-methylpiperazin-1-yl)-9-chloro-10-(2,4-difluorophenyl)-3-((4-methylpiperazin-1-yl)methyl)-2,3-dihydro-5H-[1,4]thiazino[2,3,4-ij]quinazolin-5-one]
% CAF @ 10 uM, 1h: 33.1%

C=CC(=O)N1CCN(c2nc(=O)n3c4c(c(-c5cccc6cnn(C)c56)c(Cl)cc24)SCC3)[C@@H](C)C1 [Example 127, 7-((S)-4-acryloyl-2-methylpiperazin-1-yl)-9-chloro-10-(1-methyl-1H-indazol-7-yl)-2,3-dihydro-5H-[1,4]thiazino[2,3,4-ij]quinazolin-5-one]
% CAF @ 10 uM, 1h: 60%

C=CC(=O)N1CCN(c2nc(=O)n3c4c(c(-c5ccc(F)cc5F)c(Cl)cc24)SCC3)CC12CNC2=O (centres unmarked) [Example 128, 7-(5-acryloyl-1-oxo-2,5,8-triazaspiro[3.5]nonan-8-yl)-9-chloro-10-(2,4-difluorophenyl)-2,3-dihydro-5H-[1,4]thiazino[2,3,4-ij]quinazolin-5-one]
% CAF @ 10 uM, 1h: 62.7%

C=CC(=O)N1C2CSCC1CN(c1nc(=O)n3c4c(c(-c5ccc(F)cc5F)c(Cl)cc14)SCC3)C2 [Example 129, 7-(9-acryloyl-3-thia-7,9-diazabicyclo[3.3.1]nonan-7-yl)-9-chloro-10-(2,4-difluorophenyl)-2,3-dihydro-5H-[1,4]thiazino[2,3,4-ij]quinazolin-5-one]
% CAF @ 10 uM, 1h: 95.3%

C=CC(=O)N1CCN(c2nc(=O)n3c4c(c(-c5ccc(F)cc5F)c(Cl)cc24)SC[C@H]3COC)[C@@H](C)C1 [Example 130, (3R)-7-((S)-4-acryloyl-2-methylpiperazin-1-yl)-9-chloro-10-(2,4-difluorophenyl)-3-(methoxymethyl)-2,3-dihydro-5H-[1,4]thiazino[2,3,4-ij]quinazolin-5-one]
% CAF @ 10 uM, 1h: 94.5% | % CAF @ 10 μM, 1 h (10 μM, Table 4): 94.5%

C=CC(=O)N1CCN(c2nc(=O)n3c4c(c(-c5ccc(F)cc5F)c(Cl)cc24)SCC3)C2CS(=O)(=O)CC21 (centres unmarked) [Example 131, 7-(4-acryloyl-6,6-dioxidohexahydrothieno[3,4-b]pyrazin-1(2H)-yl)-9-chloro-10-(2,4-difluorophenyl)-2,3-dihydro-5H-[1,4]thiazino[2,3,4-ij]quinazolin-5-one]
% CAF @ 10 uM, 1h: 82.2%

C=CC(=O)N1CCN(c2nc(=O)n3c4c(c(-c5ccc(F)cc5F)c(C#N)cc24)SCC3)[C@@H](C)C1 [Example 132, 7-((S)-4-acryloyl-2-methylpiperazin-1-yl)-10-(2,4-difluorophenyl)-5-oxo-2,3-dihydro-5H-[1,4]thiazino[2,3,4-ij]quinazoline-9-carbonitrile]
% CAF @ 10 uM, 1h: 91.9%

C=CC(=O)N1CCN(c2nc(=O)n3c4c(c(-c5ccc(F)cc5F)c(Cl)cc24)SCC3)CC12CN(C)C2=O (centres unmarked) [Example 133, 7-(5-acryloyl-2-methyl-1-oxo-2,5,8-triazaspiro[3.5]nonan-8-yl)-9-chloro-10-(2,4-difluorophenyl)-2,3-dihydro-5H-[1,4]thiazino[2,3,4-ij]quinazolin-5-one]
% CAF @ 10 uM, 1h: 51.9%

C=CC(=O)N1CCN(c2nc(=O)n3c4c(c(-c5ccc(F)cc5F)c(Cl)cc24)SCC3)C2COCC21 (centres unmarked) [Example 134, 7-(4-acryloylhexahydro-furo[3,4-b]pyrazin-1(2H)-yl)-9-chloro-10-(2,4-difluorophenyl)-2,3-dihydro-5H-[1,4]thiazino[2,3,4-ij]quinazolin-5-one]
% CAF @ 10 uM, 1h: 85%

C=CC(=O)N1CC2CC(C1)N2c1nc(=O)n2c3c(c(-c4ccc(F)cc4F)c(Cl)cc13)SCC2 [Example 135, 7-(3-acryloyl-3,6-diazabicyclo[3.1.1]heptan-6-yl)-9-chloro-10-(2,4-difluorophenyl)-2,3-dihydro-5H-[1,4]thiazino[2,3,4-ij]quinazolin-5-one]
% CAF @ 10 uM, 1h: 0%

C=CC(=O)N1CCN(c2nc(=O)n3c4c(c(-n5ccccc5=O)c(Cl)cc24)SCC3)[C@@H](C)C1 [Example 136, 7-((S)-4-acryloyl-2-methylpiperazin-1-yl)-9-chloro-10-(2-oxopyridin-1(2H)-yl)-2,3-dihydro-5H-[1,4]thiazino[2,3,4-ij]quinazolin-5-one]
% CAF @ 10 uM, 1h: 89.4%

Reference: patent publication US20230107642A1 (Erasca, Inc., priority 2020, published 2023)
